Laboratory results published in US20260241046A1, “PROSTATE-SPECIFIC MEMBRANE ANTIGEN RECEPTOR-TARGETING RADIOPHARMACEUTICALS AND USES THEREOF” (Nuclidium AG, priority 2024, published 2026).
Where “and” joins values, the source holds several entries; their conditions need not be identical. Equal entries are not always repeated.

Assays:
LNCaP cells [1] = test: In vitro cellular uptake and internalization; format: cell-based, human; details: for Cell surface fraction / Internalised fraction / Total uptake: % of total applied activity
Procedure: The cellular uptake of [^61Cu]Cu-NODAGA-PSMA I&T was studied in vitro using intact LNCaP cells seeded overnight in 6-well plates. On the day of the experiment, the cells were washed and incubated with [^61Cu]Cu-NODAGA-PSMA I&T at different time points, either alone or in the presence of 2-PMPA (10 μM) as a blocking agent, to distinguish between specific and non-specific uptake. At each investigated time point, the medium containing the unbound (free) [^61Cu]Cu-NODAGA-PSMA I&T was removed, followed by two washing steps with ice-cold phosphate-buffered saline. The cells were then treated for 2×5 min with ice-cold glycine solution (0.05 M, pH 2.8) to detach the cell surface-bound tracer (acid released). Afterwards, the cells containing the internalized [^61Cu]Cu-NODAGA-PSMA I&T were detached with 1 M sodium hydroxide at 37° C. and collected for measurement. The specific cell surface-bound and internalized tracer was expressed as a percentage of the total applied activity after subtracting the non-specific values. The results are presented in Table 23 as a mean value (n=3±standard deviation).

LNCaP cells [2] = test: In vitro efflux rate; format: cell-based, human; details: for Cell-associated fraction, With competitor: 100-fold excess DOTAGA-PSMA I&T
Procedure: Efflux-rate assays were performed on 6-well plates pre-treated with poly-L-lysine to promote adhesion. The plated cells were incubated with [^61Cu]Cu-NODAGA-PSMA I&T (100 μL, 0.5 nM) at 37° C. For non-specific uptake measurement, 100 μL of 2-PMPA (10 μM) was added to some wells. After 1 h, the cell-released fraction was collected by removing the medium and washing it twice with PBS. Then, the cells were incubated at 37° C. in a fresh medium for up to 180 min. At each time point, the medium was removed and replaced by fresh pre-warmed (37° C.) medium. At the end of the experiment, the cells were detached with 1 M sodium hydroxide and collected to determine the remaining cell-binding [^61Cu]Cu-NODAGA-PSMA I&T. The different fractions were quantified using a γ-counter (Cobra II, Packard A Canberra) and represented as a percentage of the applied radioactivity.
The experiment was also performed in the presence of a competitor (100-fold excess DOTAGA-PSMA I&T) to obtain a “rebinding free” system. The presence of the competitor prevented any rebinding of [^61Cu]Cu-NODAGA-PSMA I&T that dissociates faster. The values were calculated as a percentage of the cell-associated fraction (surface-bound and internalized fraction), subtracting the non-specific uptake (measured in the presence of 10 μM 2-PMPA).

[3] = Dosimetry calculations (OLINDA/EXM 1.0, extrapolated human dose)
Description: The data from the pharmacokinetic studies (Table 26) was decay-corrected using the half-life of ^61Cu to extrapolate the human dose. Since there were no measurements of the radioactivity accumulation in red marrow, this was estimated assuming a linear relationship between the blood and the red marrow residence times. The proportionality factor used was the ratio between the red marrow mass and human blood mass. The residence time (RT) for the stomach was approximated to be equal to the RT of the stomach wall since the animals were subjected to fasting before the biodistribution experiments. The heart was emptied from blood before measurements, and it was assumed that the total measured heart uptake was associated with the heart wall.
OLINDA/EXM 1.0 was used to integrate the fitted time-activity curves and to estimate the organ and effective doses using standard human whole-body adult female and male phantom models. Since the salivary glands are PSMA-positive and the organ is not included in the phantom, the dose absorbed was calculated separately, assuming that the weight of the human salivary gland is 30 g.

Structure (SMILES): O=C([O-])CN1CCN(CC(=O)[O-])CCN([C@H](CCC(=O)N[C@H](Cc2ccc(O)c(I)c2)C(=O)N[C@H](Cc2ccccc2)C(=O)N[C@H](CCCCNC(=O)CCCCCCC(=O)NCCCC[C@H](NC(=O)N[C@@H](CCC(=O)O)C(=O)O)C(=O)O)C(=O)O)C(=O)O)CC1.[61Cu+2] [[^61Cu]Cu-NODAGA-PSMA I&T]
- time over which the radiotracer was continuously internalized (LNCaP cells [1]): up to 120 minutes
- Cell surface fraction (LNCaP cells [1]; 5 min): 4.3 ± 0.7%
- Internalised fraction (LNCaP cells [1]; 5 min): 1.2 ± 0.2%
- Total uptake (LNCaP cells [1]; 5 min): 5.5 ± 0.9%
- Cell surface fraction (LNCaP cells [1]; 15 min): 8.2 ± 1.0%
- Internalised fraction (LNCaP cells [1]; 15 min): 3.9 ± 0.4%
- Total uptake (LNCaP cells [1]; 15 min): 12.1 ± 1.4%
- Cell surface fraction (LNCaP cells [1]; 30 min): 10.7 ± 1.0%
- Internalised fraction (LNCaP cells [1]; 30 min): 7.0 ± 1.1%
- Total uptake (LNCaP cells [1]; 30 min): 17.7 ± 2.1%
- Cell surface fraction (LNCaP cells [1]; 60 min): 10.8 ± 1.8%
- Internalised fraction (LNCaP cells [1]; 60 min): 11.7 ± 1.6%
- Total uptake (LNCaP cells [1]; 60 min): 22.5 ± 3.4%
- Cell surface fraction (LNCaP cells [1]; 120 min): 10.2 ± 1.8%
- Internalised fraction (LNCaP cells [1]; 120 min): 17.6 ± 2.8%
- Total uptake (LNCaP cells [1]; 120 min): 27.8 ± 4.6%
- time of highest accumulation on the cell membrane (LNCaP cells [1]; saturation of binding sites): ≤ 30 min
- Cell-associated fraction, Without competitor (LNCaP cells [2]; 10 min): 83.8 ± 0.7%
- Cell-associated fraction, With competitor (LNCaP cells [2]; 10 min): 67.9 ± 1.1%
- Cell-associated fraction, Without competitor (LNCaP cells [2]; 20 min): 73.5 ± 0.8%
- Cell-associated fraction, With competitor (LNCaP cells [2]; 20 min): 54.4 ± 0.7%
- Cell-associated fraction, Without competitor (LNCaP cells [2]; 30 min): 65.2 ± 1.4%
- Cell-associated fraction, With competitor (LNCaP cells [2]; 30 min): 46.5 ± 0.4%
- Cell-associated fraction, Without competitor (LNCaP cells [2]; 45 min): 57.0 ± 2.8%
- Cell-associated fraction, With competitor (LNCaP cells [2]; 45 min): 39.9 ± 0.6%
- Cell-associated fraction, Without competitor (LNCaP cells [2]; 60 min): 51.3 ± 3.3%
- Cell-associated fraction, With competitor (LNCaP cells [2]; 60 min): 35.9 ± 0.9%
- Cell-associated fraction, Without competitor (LNCaP cells [2]; 90 min): 45.0 ± 3.3%
- Cell-associated fraction, With competitor (LNCaP cells [2]; 90 min): 29.9 ± 1.1%
- Cell-associated fraction, Without competitor (LNCaP cells [2]; 120 min): 40.0 ± 3.5%
- Cell-associated fraction, With competitor (LNCaP cells [2]; 120 min): 25.0 ± 0.5%
- Cell-associated fraction, Without competitor (LNCaP cells [2]; 150 min): 35.4 ± 3.1%
- Cell-associated fraction, With competitor (LNCaP cells [2]; 150 min): 20.9 ± 0.4%
- Cell-associated fraction, Without competitor (LNCaP cells [2]; 180 min): 31.5 ± 2.5%
- Cell-associated fraction, With competitor (LNCaP cells [2]; 180 min): 17.5 ± 0.5%
- Effective Dose ([3]; Female): 0.0095 mSv/MBq and 9.54E−03 mSv/MBq
- Total absorbed dose, Adrenals ([3]; Female): 9.86E−02 mGy/MBq
- Total absorbed dose, Brain ([3]; Female): 5.59E−05 mGy/MBq
- Total absorbed dose, Breasts ([3]; Female): 1.23E−03 mGy/MBq
- Total absorbed dose, Gallbladder Wall ([3]; Female): 1.37E−02 mGy/MBq
- Total absorbed dose, Heart Wall ([3]; Female): 5.03E−03 mGy/MBq
- Total absorbed dose, Kidneys ([3]; Female): 1.00E+00 mGy/MBq
- Total absorbed dose, LLI Wall ([3]; Female): 3.24E−03 mGy/MBq
- Total absorbed dose, Liver ([3]; Female): 1.83E−02 mGy/MBq
- Total absorbed dose, Lungs ([3]; Female): 4.86E−03 mGy/MBq
- Total absorbed dose, Muscle ([3]; Female): 4.03E−03 mGy/MBq
- Total absorbed dose, Osteogenic Cells ([3]; Female): 3.93E−03 mGy/MBq
- Total absorbed dose, Ovaries ([3]; Female): 4.76E−03 mGy/MBq
- Total absorbed dose, Pancreas ([3]; Female): 3.18E−02 mGy/MBq
- Total absorbed dose, Red Marrow ([3]; Female): 6.94E−03 mGy/MBq
- Total absorbed dose, Skin ([3]; Female): 1.82E−03 mGy/MBq
- Total absorbed dose, Small Intestine ([3]; Female): 2.78E−02 mGy/MBq
- Total absorbed dose, Spleen ([3]; Female): 5.65E−02 mGy/MBq
- Total absorbed dose, Stomach Wall ([3]; Female): 1.08E−02 mGy/MBq
- Total absorbed dose, Thymus ([3]; Female): 1.11E−03 mGy/MBq
- Total absorbed dose, Thyroid ([3]; Female): 2.72E−04 mGy/MBq
- Total absorbed dose, Total Body ([3]; Female): 9.46E−03 mGy/MBq
- Total absorbed dose, ULI Wall ([3]; Female): 9.78E−03 mGy/MBq
- Total absorbed dose, Urinary Bladder Wall ([3]; Female): 1.60E−03 mGy/MBq
- Total absorbed dose, Uterus ([3]; Female): 3.94E−03 mGy/MBq
- Effective Dose ([3]; Male): 0.0142 mSv/MBq and 1.42E−02 mSv/MBq
- Total absorbed dose, Adrenals ([3]; Male): 8.39E−02 mGy/MBq
- Total absorbed dose, Brain ([3]; Male): 6.18E−05 mGy/MBq
- Total absorbed dose, Gallbladder Wall ([3]; Male): 2.30E−02 mGy/MBq
- Total absorbed dose, Heart Wall ([3]; Male): 6.94E−03 mGy/MBq
- Total absorbed dose, Kidneys ([3]; Male): 1.74E+00 mGy/MBq
- Total absorbed dose, LLI Wall ([3]; Male): 4.64E−03 mGy/MBq
- Total absorbed dose, Liver ([3]; Male): 2.51E−02 mGy/MBq
- Total absorbed dose, Lungs ([3]; Male): 6.11E−03 mGy/MBq
- Total absorbed dose, Muscle ([3]; Male): 6.00E−03 mGy/MBq
- Total absorbed dose, Osteogenic Cells ([3]; Male): 5.31E−03 mGy/MBq
- Total absorbed dose, Pancreas ([3]; Male): 4.83E−02 mGy/MBq
- Total absorbed dose, Red Marrow ([3]; Male): 1.11E−02 mGy/MBq
- Total absorbed dose, Skin ([3]; Male): 2.90E−03 mGy/MBq
- Total absorbed dose, Small Intestine ([3]; Male): 3.79E−02 mGy/MBq
- Total absorbed dose, Spleen ([3]; Male): 7.37E−02 mGy/MBq
- Total absorbed dose, Stomach Wall ([3]; Male): 1.71E−02 mGy/MBq
- Total absorbed dose, Testes ([3]; Male): 5.39E−04 mGy/MBq
- Total absorbed dose, Thymus ([3]; Male): 1.67E−03 mGy/MBq
- Total absorbed dose, Thyroid ([3]; Male): 4.99E−04 mGy/MBq
- Total absorbed dose, Total Body ([3]; Male): 1.38E−02 mGy/MBq
- Total absorbed dose, ULI Wall ([3]; Male): 1.43E−02 mGy/MBq
- Total absorbed dose, Urinary Bladder Wall ([3]; Male): 2.06E−03 mGy/MBq
- absorbed dose in the kidneys ([3]; after injecting 100-150 MBq): 0.17-0.26 Gy
